Measurements reported in the kinase profiling compilation of Christmann-Franck et al. (2016).
Blank lines part the entries; values can stand above or below the molecule they belong to.

Columns and labels:
FLT3 (human) = FLT3 (human) (UniProt P36888); assay: SelectScreen, TR FRET; conditions: compound 10.0 µM
ABL1 (human) = ABL1 (human) (UniProt P00519); assay: SelectScreen, TR FRET; conditions: compound 10.0 µM
PRKCB1 (human) = PRKCB1 (human) (UniProt P05771); assay: SelectScreen, TR FRET; conditions: compound 10.0 µM
Chain of PRKCB1 (human) (P05771 whole entry, looked up): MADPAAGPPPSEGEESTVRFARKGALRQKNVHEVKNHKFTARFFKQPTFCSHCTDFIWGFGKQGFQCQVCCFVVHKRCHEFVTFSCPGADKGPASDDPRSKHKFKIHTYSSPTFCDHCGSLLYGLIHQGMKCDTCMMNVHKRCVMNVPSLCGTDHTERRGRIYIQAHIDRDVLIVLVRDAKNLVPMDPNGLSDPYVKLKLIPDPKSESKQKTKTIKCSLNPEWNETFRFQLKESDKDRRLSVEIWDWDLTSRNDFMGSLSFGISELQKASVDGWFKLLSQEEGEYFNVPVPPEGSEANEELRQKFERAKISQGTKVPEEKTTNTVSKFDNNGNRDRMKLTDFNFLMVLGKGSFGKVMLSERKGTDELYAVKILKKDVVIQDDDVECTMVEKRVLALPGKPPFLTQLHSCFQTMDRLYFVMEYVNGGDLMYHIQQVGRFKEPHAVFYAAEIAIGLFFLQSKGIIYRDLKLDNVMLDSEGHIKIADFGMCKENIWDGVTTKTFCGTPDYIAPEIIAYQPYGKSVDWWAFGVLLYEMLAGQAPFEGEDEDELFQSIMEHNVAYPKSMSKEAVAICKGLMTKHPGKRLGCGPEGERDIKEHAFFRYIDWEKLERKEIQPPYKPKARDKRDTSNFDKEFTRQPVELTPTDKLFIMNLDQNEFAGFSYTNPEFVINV

PDGFRA (human) [1] = molecular target: PDGFRA (human) (UniProt P16234); assay: SelectScreen, TR FRET; conditions: compound 10.0 µM
MAPK10 (human) = MAPK10 (human) (UniProt P53779); assay: SelectScreen, TR FRET; conditions: compound 10.0 µM
CSF1R (human) [2] = molecular target: CSF1R (human) (UniProt P07333); assay: SelectScreen, TR FRET; conditions: compound 10.0 µM
MAP3K7 TAB1 (human) = MAP3K7 TAB1 (human) (UniProt Q15750+O43318); assay: SelectScreen, TR FRET; conditions: compound 10.0 µM
IRAK4 (human) = IRAK4 (human) (UniProt Q9NWZ3); assay: SelectScreen, TR FRET; conditions: compound 10.0 µM
PAK4 (human) = PAK4 (human) (UniProt O96013); assay: SelectScreen, TR FRET; conditions: compound 10.0 µM
AURKA (human) = AURKA (human) (UniProt O14965); assay: SelectScreen, TR FRET; conditions: compound 10.0 µM
JAK1 JH1 JH2 (human) = JAK1 JH1 JH2 (human) (UniProt P23458); assay: SelectScreen, TR FRET; conditions: compound 10.0 µM
RAF1 (human) = RAF1 (human) (UniProt P04049); assay: SelectScreen, TR FRET; conditions: compound 10.0 µM
Chain of RAF1 (human) (P04049 whole entry, looked up): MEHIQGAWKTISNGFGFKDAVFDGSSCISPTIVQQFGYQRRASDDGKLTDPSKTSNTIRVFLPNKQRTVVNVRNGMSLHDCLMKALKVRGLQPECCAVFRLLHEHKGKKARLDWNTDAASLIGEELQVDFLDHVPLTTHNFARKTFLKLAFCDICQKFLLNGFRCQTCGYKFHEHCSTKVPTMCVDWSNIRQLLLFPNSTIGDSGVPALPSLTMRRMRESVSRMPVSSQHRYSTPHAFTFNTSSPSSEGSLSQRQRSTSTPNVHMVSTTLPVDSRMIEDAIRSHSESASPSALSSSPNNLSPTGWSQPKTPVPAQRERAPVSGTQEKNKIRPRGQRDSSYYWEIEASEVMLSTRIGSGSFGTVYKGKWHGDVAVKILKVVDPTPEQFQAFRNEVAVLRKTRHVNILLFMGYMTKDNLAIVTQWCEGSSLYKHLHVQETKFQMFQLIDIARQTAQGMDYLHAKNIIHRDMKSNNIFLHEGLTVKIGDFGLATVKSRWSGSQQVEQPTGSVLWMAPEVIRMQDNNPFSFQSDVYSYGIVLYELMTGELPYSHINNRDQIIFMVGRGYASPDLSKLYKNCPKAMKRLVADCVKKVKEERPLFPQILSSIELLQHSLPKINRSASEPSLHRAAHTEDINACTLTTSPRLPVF

MAPK1 (human) = MAPK1 (human) (UniProt P28482); assay: SelectScreen, TR FRET; conditions: compound 10.0 µM
RET (human) = RET (human) (UniProt P07949); assay: SelectScreen, TR FRET; conditions: compound 10.0 µM
CHEK1 (human) = CHEK1 (human) (UniProt O14757); assay: SelectScreen, TR FRET; conditions: compound 10.0 µM
PLK3 (human) = PLK3 (human) (UniProt Q9H4B4); assay: SelectScreen, TR FRET; conditions: compound 10.0 µM
Chain of PLK3 (human) (Q9H4B4 whole entry, looked up): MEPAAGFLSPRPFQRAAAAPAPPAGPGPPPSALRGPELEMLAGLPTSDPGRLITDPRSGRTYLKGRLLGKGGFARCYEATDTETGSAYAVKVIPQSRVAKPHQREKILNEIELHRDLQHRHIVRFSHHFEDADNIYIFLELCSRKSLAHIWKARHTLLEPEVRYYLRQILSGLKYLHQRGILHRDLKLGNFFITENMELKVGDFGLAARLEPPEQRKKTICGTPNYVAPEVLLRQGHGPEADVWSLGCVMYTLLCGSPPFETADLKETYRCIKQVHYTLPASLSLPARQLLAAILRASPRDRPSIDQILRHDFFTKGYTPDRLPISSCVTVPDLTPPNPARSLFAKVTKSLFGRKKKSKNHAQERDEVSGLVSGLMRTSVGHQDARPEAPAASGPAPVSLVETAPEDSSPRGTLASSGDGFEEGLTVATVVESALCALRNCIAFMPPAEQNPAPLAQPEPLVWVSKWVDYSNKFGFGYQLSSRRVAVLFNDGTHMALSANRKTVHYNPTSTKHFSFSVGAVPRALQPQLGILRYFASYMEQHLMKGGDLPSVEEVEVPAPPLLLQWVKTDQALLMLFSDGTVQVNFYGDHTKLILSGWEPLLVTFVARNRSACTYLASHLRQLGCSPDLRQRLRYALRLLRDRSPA

ERBB4 (human) = ERBB4 (human) (UniProt Q15303); assay: SelectScreen, TR FRET; conditions: compound 10.0 µM
Chain of ERBB4 (human) (Q15303 whole entry, looked up): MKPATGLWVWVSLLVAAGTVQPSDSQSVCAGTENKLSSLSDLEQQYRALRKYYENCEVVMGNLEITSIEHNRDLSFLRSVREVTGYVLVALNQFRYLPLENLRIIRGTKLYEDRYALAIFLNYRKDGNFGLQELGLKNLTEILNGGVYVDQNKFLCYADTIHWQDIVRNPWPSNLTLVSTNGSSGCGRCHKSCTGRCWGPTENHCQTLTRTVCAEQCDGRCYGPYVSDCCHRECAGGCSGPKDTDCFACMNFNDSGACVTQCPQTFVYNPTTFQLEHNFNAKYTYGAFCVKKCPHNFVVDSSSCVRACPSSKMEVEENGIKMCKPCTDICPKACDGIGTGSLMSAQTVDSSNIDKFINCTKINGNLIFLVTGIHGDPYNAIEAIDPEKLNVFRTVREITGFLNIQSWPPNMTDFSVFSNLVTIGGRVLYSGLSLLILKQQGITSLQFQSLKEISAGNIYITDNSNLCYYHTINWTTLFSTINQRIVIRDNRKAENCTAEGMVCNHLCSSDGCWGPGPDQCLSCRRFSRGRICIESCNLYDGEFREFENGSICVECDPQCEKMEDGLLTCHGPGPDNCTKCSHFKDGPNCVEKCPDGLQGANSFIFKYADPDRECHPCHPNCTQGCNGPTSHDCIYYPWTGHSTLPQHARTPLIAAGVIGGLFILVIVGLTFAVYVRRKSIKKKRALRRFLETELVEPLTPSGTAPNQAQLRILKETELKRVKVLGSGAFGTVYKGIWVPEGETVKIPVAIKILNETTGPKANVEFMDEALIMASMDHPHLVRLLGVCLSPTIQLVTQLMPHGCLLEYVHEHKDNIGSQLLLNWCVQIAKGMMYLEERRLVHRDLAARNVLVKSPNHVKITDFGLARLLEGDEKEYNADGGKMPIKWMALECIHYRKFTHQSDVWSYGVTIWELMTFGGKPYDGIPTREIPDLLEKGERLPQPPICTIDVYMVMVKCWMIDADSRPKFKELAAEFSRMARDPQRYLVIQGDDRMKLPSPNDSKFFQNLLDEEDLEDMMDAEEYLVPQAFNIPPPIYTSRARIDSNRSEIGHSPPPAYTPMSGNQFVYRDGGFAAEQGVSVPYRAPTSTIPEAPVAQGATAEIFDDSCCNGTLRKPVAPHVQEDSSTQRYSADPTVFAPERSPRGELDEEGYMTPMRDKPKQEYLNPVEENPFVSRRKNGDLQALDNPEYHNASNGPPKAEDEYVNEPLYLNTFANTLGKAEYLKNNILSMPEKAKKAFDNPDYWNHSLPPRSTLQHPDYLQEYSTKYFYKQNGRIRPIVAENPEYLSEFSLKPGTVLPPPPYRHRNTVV

LCK (human) = LCK (human) (UniProt P06239); assay: SelectScreen, TR FRET; conditions: compound 10.0 µM
GSK3B (human) = GSK3B (human) (UniProt P49841); assay: SelectScreen, TR FRET; conditions: compound 10.0 µM
Chain of GSK3B (human) (P49841 whole entry, looked up): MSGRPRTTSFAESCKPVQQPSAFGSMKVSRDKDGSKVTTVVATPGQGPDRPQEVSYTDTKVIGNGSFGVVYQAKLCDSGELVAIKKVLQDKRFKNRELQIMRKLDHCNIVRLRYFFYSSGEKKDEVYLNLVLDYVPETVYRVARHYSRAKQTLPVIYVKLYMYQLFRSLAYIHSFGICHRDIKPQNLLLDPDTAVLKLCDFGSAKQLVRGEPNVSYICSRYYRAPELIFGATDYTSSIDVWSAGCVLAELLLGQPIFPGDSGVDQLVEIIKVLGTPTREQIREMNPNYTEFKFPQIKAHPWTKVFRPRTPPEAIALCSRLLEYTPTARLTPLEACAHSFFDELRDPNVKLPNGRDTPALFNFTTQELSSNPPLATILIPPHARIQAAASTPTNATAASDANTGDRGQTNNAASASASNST

ROCK2 (human) = ROCK2 (human) (UniProt O75116); assay: SelectScreen, TR FRET; conditions: compound 10.0 µM
CAMK2A (human) = CAMK2A (human) (UniProt Q9UQM7); assay: SelectScreen, TR FRET; conditions: compound 10.0 µM
LRRK2 (human) [3] = molecular target: LRRK2 (human) (UniProt Q5S007); assay: SelectScreen, TR FRET; conditions: compound 10.0 µM
CDK2 CCNA2 (human) = CDK2 CCNA2 (human) (UniProt P24941+P20248); assay: SelectScreen, TR FRET; conditions: compound 10.0 µM
RIPK2 (human) = RIPK2 (human) (UniProt O43353); assay: SelectScreen, TR FRET; conditions: compound 10.0 µM
PRKACA (human) = PRKACA (human) (UniProt P17612); assay: SelectScreen, TR FRET; conditions: compound 10.0 µM
PTK2B (human) = PTK2B (human) (UniProt Q14289); assay: SelectScreen, TR FRET; conditions: compound 10.0 µM
TTK (human) = TTK (human) (UniProt P33981); assay: SelectScreen, TR FRET; conditions: compound 10.0 µM
DYRK1B (human) = DYRK1B (human) (UniProt Q9Y463); assay: SelectScreen, TR FRET; conditions: compound 10.0 µM
STK3 (human) = STK3 (human) (UniProt Q13188); assay: SelectScreen, TR FRET; conditions: compound 10.0 µM
CLK1 (human) = CLK1 (human) (UniProt P49759); assay: SelectScreen, TR FRET; conditions: compound 10.0 µM
Chain of CLK1 (human) (P49759 whole entry, looked up): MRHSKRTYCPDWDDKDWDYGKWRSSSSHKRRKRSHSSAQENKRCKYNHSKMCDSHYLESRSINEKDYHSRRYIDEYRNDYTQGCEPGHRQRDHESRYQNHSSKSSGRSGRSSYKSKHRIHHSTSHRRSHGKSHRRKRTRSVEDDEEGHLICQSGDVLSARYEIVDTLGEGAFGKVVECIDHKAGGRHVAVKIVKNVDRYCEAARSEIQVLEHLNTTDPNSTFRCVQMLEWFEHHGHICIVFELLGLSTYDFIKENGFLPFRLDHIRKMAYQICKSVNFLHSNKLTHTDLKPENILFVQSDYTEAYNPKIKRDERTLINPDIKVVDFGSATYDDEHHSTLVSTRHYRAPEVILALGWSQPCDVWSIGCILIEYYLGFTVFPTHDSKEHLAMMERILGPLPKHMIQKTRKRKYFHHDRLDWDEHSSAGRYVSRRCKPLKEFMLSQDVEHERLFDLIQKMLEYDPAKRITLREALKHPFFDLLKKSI

SYK (human) = SYK (human) (UniProt P43405); assay: SelectScreen, TR FRET; conditions: compound 10.0 µM
PLK2 (human) = PLK2 (human) (UniProt Q9NYY3); assay: SelectScreen, TR FRET; conditions: compound 10.0 µM
INSR (human) = INSR (human) (UniProt P06213); assay: SelectScreen, TR FRET; conditions: compound 10.0 µM
PIK3CA PIK3R1 (human) = PIK3CA PIK3R1 (human) (UniProt P27986+P42336); assay: SelectScreen, TR FRET; conditions: compound 10.0 µM
CDK1 CCNB1 (human) = CDK1 CCNB1 (human) (UniProt P06493+P14635); assay: SelectScreen, TR FRET; conditions: compound 10.0 µM
PLK1 (human) = PLK1 (human) (UniProt P53350); assay: SelectScreen, TR FRET; conditions: compound 10.0 µM
Chain of PLK1 (human) (P53350 whole entry, looked up): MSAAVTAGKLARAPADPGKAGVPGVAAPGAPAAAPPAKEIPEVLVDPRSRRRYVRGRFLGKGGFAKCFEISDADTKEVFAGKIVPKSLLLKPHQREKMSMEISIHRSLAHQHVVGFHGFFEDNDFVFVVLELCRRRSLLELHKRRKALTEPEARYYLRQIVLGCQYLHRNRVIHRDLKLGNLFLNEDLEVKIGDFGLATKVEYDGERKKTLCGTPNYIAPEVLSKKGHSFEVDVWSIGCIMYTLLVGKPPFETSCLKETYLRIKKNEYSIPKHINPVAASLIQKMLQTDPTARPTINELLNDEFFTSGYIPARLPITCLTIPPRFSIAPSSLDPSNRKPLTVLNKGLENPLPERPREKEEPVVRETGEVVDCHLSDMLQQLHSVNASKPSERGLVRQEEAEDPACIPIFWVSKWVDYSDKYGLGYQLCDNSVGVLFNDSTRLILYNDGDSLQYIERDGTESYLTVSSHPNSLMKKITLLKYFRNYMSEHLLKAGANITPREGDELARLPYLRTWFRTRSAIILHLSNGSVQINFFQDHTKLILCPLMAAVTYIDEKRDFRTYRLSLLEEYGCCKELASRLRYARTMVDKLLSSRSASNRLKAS

STK16 (human) = STK16 (human) (UniProt O75716); assay: SelectScreen, TR FRET; conditions: compound 10.0 µM
AKT1 (human) = AKT1 (human) (UniProt P31749); assay: SelectScreen, TR FRET; conditions: compound 10.0 µM
MARK2 (human) = MARK2 (human) (UniProt Q7KZI7); assay: SelectScreen, TR FRET; conditions: compound 10.0 µM
CDK5 CDK5R1 p25 (human) = CDK5 CDK5R1 p25 (human) (UniProt Q15078+Q00535); assay: SelectScreen, TR FRET; conditions: compound 10.0 µM
PDGFRA (human) [4] = molecular target: PDGFRA (human) (UniProt P16234); assay: HTRF
CSF1R (human) [5] = molecular target: CSF1R (human) (UniProt P07333); assay: HTRF
[6] = molecular target: LRRK2 (human), Q5S007 [G2019S]; assay: HTRF
LRRK2 (human) [7] = molecular target: LRRK2 (human) (UniProt Q5S007); assay: HTRF

SMILES: CC(C)Nc1c(C(N)=O)nnc2cc(-c3ccc(N4CCOCC4)cc3)ccc12
inhibition (FLT3 (human)): 98.9%
inhibition (ABL1 (human)): 55.5%
inhibition (PRKCB1 (human)): -0.227%
inhibition (PDGFRA (human) [1]): 97.5%
inhibition (MAPK10 (human)): 16.6%
inhibition (CSF1R (human) [2]): 97.3%
inhibition (MAP3K7 TAB1 (human)): 67.1%
inhibition (IRAK4 (human)): 17.5%
inhibition (PAK4 (human)): 59.5%
inhibition (AURKA (human)): 80.8%
inhibition (JAK1 JH1 JH2 (human)): 72.3%
inhibition (RAF1 (human)): 27%
inhibition (MAPK1 (human)): -5.26%
inhibition (RET (human)): 82.8%
inhibition (CHEK1 (human)): 93.2%
inhibition (PLK3 (human)): -15.6%
inhibition (ERBB4 (human)): 14.7%
inhibition (LCK (human)): 74.7%
inhibition (GSK3B (human)): 42.2%
inhibition (ROCK2 (human)): 78%
inhibition (CAMK2A (human)): 17.4%
inhibition (LRRK2 (human) [3]): 98.6%
inhibition (CDK2 CCNA2 (human)): 5.12%
inhibition (RIPK2 (human)): 44.4%
inhibition (PRKACA (human)): -1.97%
inhibition (PTK2B (human)): 38.9%
inhibition (TTK (human)): 66.6%
inhibition (DYRK1B (human)): 6.79%
inhibition (STK3 (human)): 41.9%
inhibition (CLK1 (human)): 4.04%
inhibition (SYK (human)): 81.4%
inhibition (PLK2 (human)): 5.59%
inhibition (INSR (human)): -0.801%
inhibition (PIK3CA PIK3R1 (human)): 15.2%
inhibition (CDK1 CCNB1 (human)): 2.62%
inhibition (PLK1 (human)): 3.31%
inhibition (STK16 (human)): 39.9%
inhibition (AKT1 (human)): 1.33%
inhibition (MARK2 (human)): 80.5%
inhibition (CDK5 CDK5R1 p25 (human)): 3.19%
IC50 (PDGFRA (human) [4]): 262 nM
IC50 (CSF1R (human) [5]): 22 nM
IC50 [6]: 12 nM
IC50 (LRRK2 (human) [7]): 9 nM

SMILES: CC(C)Nc1c(C(N)=O)nnc2cc(-c3ccncc3)ccc12
inhibition (MAPK1 (human)): 22.7%
inhibition (PLK3 (human)): -0.393%
inhibition (ERBB4 (human)): 22.3%
inhibition (CAMK2A (human)): 13.6%
inhibition (PLK1 (human)): 33.4%
inhibition (AKT1 (human)): 12.7%

SMILES: CC(C)Nc1c(C(N)=O)nnc2ccc(-c3ccncc3)cc12
inhibition (ERBB4 (human)): 20.6%
inhibition (INSR (human)): 13.3%

Results, then the molecule that gave them:

inhibition (PRKCB1 (human)): -1.63%
inhibition (IRAK4 (human)): -6.26%
inhibition (MAPK1 (human)): 2.96%
inhibition (PLK3 (human)): 9.8%
inhibition (ERBB4 (human)): 3.89%
inhibition (CAMK2A (human)): 10.5%
inhibition (CDK2 CCNA2 (human)): 2.69%
inhibition (PRKACA (human)): 0.0814%
inhibition (CLK1 (human)): 13.7%
inhibition (PLK2 (human)): 10.6%
inhibition (INSR (human)): 7.17%
inhibition (PIK3CA PIK3R1 (human)): 1.77%
inhibition (CDK1 CCNB1 (human)): 7.35%
inhibition (PLK1 (human)): 13.7%
inhibition (AKT1 (human)): 4.88%
inhibition (CDK5 CDK5R1 p25 (human)): -0.613%
SMILES: CS(=O)(=O)c1ccc(-c2ccc3c(NC4CCC4)c(C(N)=O)nnc3c2)cc1

inhibition (PRKCB1 (human)): 0.123%
inhibition (MAPK10 (human)): 20.5%
inhibition (IRAK4 (human)): 0.691%
inhibition (RAF1 (human)): 21.3%
inhibition (MAPK1 (human)): -52.2%
inhibition (PLK3 (human)): 4.63%
inhibition (ERBB4 (human)): 11.7%
inhibition (GSK3B (human)): 28.6%
inhibition (CAMK2A (human)): 14.6%
inhibition (CDK2 CCNA2 (human)): -48.5%
inhibition (RIPK2 (human)): 28.4%
inhibition (PRKACA (human)): -0.763%
inhibition (DYRK1B (human)): 2.7%
inhibition (CLK1 (human)): 5.47%
inhibition (PLK2 (human)): 17.2%
inhibition (INSR (human)): 0.279%
inhibition (PIK3CA PIK3R1 (human)): 9.68%
inhibition (CDK1 CCNB1 (human)): -2.77%
inhibition (PLK1 (human)): 1.06%
inhibition (STK16 (human)): -47.1%
inhibition (AKT1 (human)): 4.06%
inhibition (CDK5 CDK5R1 p25 (human)): -16.4%
SMILES: C[C@@H](Nc1c(C(N)=O)nnc2cc(-c3ccc(S(C)(=O)=O)cc3)ccc12)C1CC1

inhibition (PRKCB1 (human)): 8.27%
inhibition (MAPK10 (human)): 4.17%
inhibition (RAF1 (human)): 16.7%
inhibition (PLK3 (human)): 0.957%
inhibition (GSK3B (human)): 6.45%
inhibition (CAMK2A (human)): -0.0898%
inhibition (PRKACA (human)): 5.91%
inhibition (DYRK1B (human)): 9.19%
inhibition (CLK1 (human)): 1.75%
inhibition (PLK2 (human)): 7.12%
inhibition (INSR (human)): 3.68%
inhibition (PIK3CA PIK3R1 (human)): -1.65%
inhibition (CDK1 CCNB1 (human)): 1.38%
inhibition (PLK1 (human)): 0.631%
inhibition (AKT1 (human)): 4.75%
inhibition (CDK5 CDK5R1 p25 (human)): 2.45%
SMILES: CC(C)Nc1c(C(N)=O)cnc2cc(-c3ccc(S(C)(=O)=O)cc3)ccc12
